Source: patent publication US20090253157A1, “METHOD OF DIRECTED DIFFERENTIATION OF PORCINE EMBRYONIC STEM CELLS AND USING THE SAID CELLS IN DRUG SCREENING” (Livestock Research Institute, Council of Agriculture, …, priority 2008, published 2009)
“And” between values parts separate entries of the source, which are not always exact repeats. Identical values can stand only once. Marks after values point to notes of the source that are not given here.

Test system: pES cells of the M215-3 strain
Assay: Directed neural differentiation of pES cells (two-stage induction), immunocytochemical staining for neural biomarkers
Type: cell-based, porcine
Experimental: The pES cells of the M215-3 strain derived from the pre-implantation blastocysts of Taiwan Livestock Research Institute Black Pig No. 1 (a topcrossing breed established from Taoyuan and Duroc pigs) were maintained in ES-cell culture medium (ESM) consisting of Dulbecco's modified eagle medium (DMEM, high glucose and no pyruvate, Invitrogen, Grand Island, N.Y., USA) supplemented with 1 mM L-glutamine (Sigma-Aldrich, St. Louis, Mo., USA), 0.1 mM β-2-mercaptoethanol (Sigma-Aldrich), […] MEM non-essential amino acids (Sigma-Aldrich), 0.03 mM adenosine (Sigma-Aldrich), 0.03 mM guanosine (Sigma-Aldrich), 0.03 mM cytidine (Sigma-Aldrich), 0.03 mM uridine (Sigma-Aldrich), 0.01 mM thymidine (Sigma-Aldrich), antibiotics (50 units/ml penicillin G and 50 μg/ml streptomycin sulfate, Invitrogen) and 16% fetal bovine serum (FBS, Invitrogen) as described previously (Chen et al., 1991, J. Chin. Soc. Anim. Sci. 20: 326-339). Briefly, the pluripotent pES cells were propagated on a feeder layer of mitomycin C (Sigma-Aldrich) inactivated STO cells (mouse embryonic fibroblasts, CRL-1503, USA) in gelatin-coated Multidish 4 Wells® (Nunc 176740, Roskilde, Denmark) in ESM at 39° C. with an atmosphere of 5% CO2 in air. For the maintenance of undifferentiation, pES colonies were regulatory subcultured with 0.25% trypsin-0.02 mM EDTA (Invitrogen) and re-plated onto fresh STO feeder layers every 5 to 7 days.
Confluent pES cells were trypsinized and subjected to a two-stage in vitro induction protocol for neural differentiation. They were firstly taken into a suspension culture in an Easy Flask® (NUNC 169900, Roskilde, Denmark) for a 12-day period of neural induction. Neural induction is initiated by plating undifferentiated pES cells as single-cell suspension at a number of 1×10^5 cells totally in ESM medium withdrawing FBS and containing 1 μM retinoic acid (RA, Sigma-Aldrich), 200 ng/ml sonic hedgehog (SHH, R&D systems, Minneapolis, Minn., USA) and 100 ng/ml fibroblast growth factor (FGF, Sigma-Aldrich) as described by Barberi et al. (Nat. Biotechnol. 2003. 21: 1200-1207). Five combined treatments of neurogenic stimulators for neural induction were applied: (1) RA, (2) RA+SHH, (3) RA+FGF, (4) SHH+FGF, (5) RA+SHH+FGF. After 12 days of induction, the pES cell-derived neural cells were plated onto gelatin-coated 4-well dishes in high-density (2×10^4 cells/ml) or low-density (5×10^3 cells/ml). These cells were then cultured in DMEM/F12 medium (Sigma-Aldrich) supplemented with 10% FBS, 20 ng/ml human recombinant epidermal growth factor (hrEGF, Invitrogen), 20 ng/ml human recombinant basic fibroblast growth factor (hrbFGF, Invitrogen), and 1:100 N2 (Invitrogen), and allowed for the propagation of neural precursor cells (Pan et al., 2005 Biochem. Biophys. Res. Commun. 327: 548-556). After plating onto the 4-well dish, the induced pES cells were treated with trypsin/EDTA and collected at days 2, 4, 6, 8, 10, and 12, respectively, to analyze the neural-related development by immunocytochemical staining.
Cells for immunocytochemical analysis were fixed in 10% formalin at room temperature for 30 minutes. The cells were washed with phosphate buffered saline (PBS, Sigma-Aldrich), then incubated with 0.3% Triton X-100 (Sigma-Aldrich) for 10 minutes, 3% H2O2 (Sigma-Aldrich) for 5 minutes and incubated in blocking buffer (5% FBS) at room temperature for 2 hours. After being washed with PBS, the cells were incubated overnight with appropriate dilution of primary antibody, or combination of antibodies at 4° C. (Li et al., 2005 Nat. Biotechnol. 2005. 23: 215-221). Subsequently, cells were incubated with secondary antibody of Fluorescein (FITC)-conjugated AffiniPure Goat Anti-Rabbit IgG, Goat Anti-Mouse IgG, IgM (1:200, Jackson Immunoresearch Laboratories, West Baltimore Pike, Pa., USA) for a minimum of 2 hours, followed by washing in PBS. […]

[1] = day 6 after the treatments, mean±S.D.

SMILES: CC1=C(/C=C/C(C)=C/C=C/C(C)=C/C(=O)O)C(C)(C)CCC1 [RA, retinoic acid]
- percentage of pES cell-derived neural lineages expressing nestin (D2 after replating, 12-day induction, 1 μM RA, 200 ng/ml SHH, 100 ng/ml FGF, mean±S.D.): 86.2 ± 7.9^ab %
- percentage of pES cell-derived neural lineages expressing A2B5 (D2 after replating, mean±S.D.): 83.7 ± 12.6%
- percentage of pES cell-derived neural lineages expressing ChAT (D2 after replating, mean±S.D.): 87.1 ± 5.6^ab %
- percentage of pES cell-derived neural lineages expressing GFAP (D2 after replating, mean±S.D.): 9.8 ± 3.8%
- percentage of pES cell-derived neural lineages expressing NFL (D2 after replating, mean±S.D.): 93.9 ± 3.9^a %
- percentage of pES cell-derived neural lineages expressing TH (D2 after replating, mean±S.D.): 7.8 ± 2.5%
- percentage of pES cell-derived neural lineages expressing A2B5 (D4 after replating, mean±S.D.): 86.6 ± 3.3%
- percentage of pES cell-derived neural lineages expressing ChAT (D4 after replating, mean±S.D.): 85.8 ± 3.2^bc %
- percentage of pES cell-derived neural lineages expressing GFAP (D4 after replating, mean±S.D.): 7.6 ± 4.2%
- percentage of pES cell-derived neural lineages expressing NFL (D4 after replating, mean±S.D.): 90.3 ± 4.8^ab %
- percentage of pES cell-derived neural lineages expressing TH (D4 after replating, mean±S.D.): 8.0 ± 4.9%
- percentage of pES cell-derived neural lineages expressing nestin (D4 after replating, mean±S.D.): 90.5 ± 4.7^a %
- percentage of pES cell-derived neural lineages expressing A2B5 (D6 after replating, mean±S.D.): 87.6 ± 7.4% and 87.6 ± 7.4^a %
- percentage of pES cell-derived neural lineages expressing ChAT (D6 after replating, mean±S.D.): 91.8 ± 8.3^a %
- percentage of pES cell-derived neural lineages expressing GFAP (D6 after replating, mean±S.D.): 7.7±3.6% and 7.7 ± 3.6^d %
- percentage of pES cell-derived neural lineages expressing NFL (D6 after replating, mean±S.D.): 91.8 ± 6.0^a %
- percentage of pES cell-derived neural lineages expressing TH (D6 after replating, mean±S.D.): 8.7±1.7% and 8.7 ± 1.7^b %
- percentage of pES cell-derived neural lineages expressing A2B5 (D8 after replating, mean±S.D.): 86.9 ± 9.3%
- percentage of pES cell-derived neural lineages expressing ChAT (D8 after replating, mean±S.D.): 86.9 ± 4.4^ab %
- percentage of pES cell-derived neural lineages expressing GFAP (D8 after replating, mean±S.D.): 7.3 ± 1.5%
- percentage of pES cell-derived neural lineages expressing NFL (D8 after replating, mean±S.D.): 85.8 ± 4.2^b %
- percentage of pES cell-derived neural lineages expressing TH (D8 after replating, mean±S.D.): 8.5 ± 2.7%
- percentage of pES cell-derived neural lineages expressing nestin (D8 after replating, mean±S.D.): 81.2 ± 8.0^bc %
- percentage of pES cell-derived neural lineages expressing A2B5 (D10 after replating, mean±S.D.): 86.3 ± 1.9%
- percentage of pES cell-derived neural lineages expressing ChAT (D10 after replating, mean±S.D.): 89.9 ± 7.2^ab %
- percentage of pES cell-derived neural lineages expressing GFAP (D10 after replating, mean±S.D.): 7.7 ± 4.5%
- percentage of pES cell-derived neural lineages expressing NFL (D10 after replating, mean±S.D.): 84.4 ± 7.7^b %
- percentage of pES cell-derived neural lineages expressing TH (D10 after replating, mean±S.D.): 8.5 ± 4.2%
- percentage of pES cell-derived neural lineages expressing nestin (D10 after replating, mean±S.D.): 82.4 ± 11.4^bc %
- percentage of pES cell-derived neural lineages expressing A2B5 (D12 after replating, mean±S.D.): 84.8 ± 5.2%
- percentage of pES cell-derived neural lineages expressing ChAT (D12 after replating, mean±S.D.): 80.3 ± 6.0^c %
- percentage of pES cell-derived neural lineages expressing GFAP (D12 after replating, mean±S.D.): 7.6 ± 2.3%
- percentage of pES cell-derived neural lineages expressing NFL (D12 after replating, mean±S.D.): 74.4 ± 12.3^c %
- percentage of pES cell-derived neural lineages expressing TH (D12 after replating, mean±S.D.): 8.4 ± 3.5%
- percentage of pES cell-derived neural lineages expressing nestin (D12 after replating, mean±S.D.): 77.9 ± 6.6^c %
- percentage of pES cell-derived neural lineages expressing CNPase [1]: 89.8 ± 4.7^ab %
- percentage of pES cell-derived neural lineages expressing GABA [1]: 80.5±9.2% and 80.5 ± 9.2^a %
- percentage of pES cell-derived neural lineages expressing MAP2 [1]: 86.1 ± 3.2^a %
- percentage of pES cell-derived neural lineages expressing O4 [1]: 90.7 ± 5.9%
- percentage of pES cell-derived neural lineages expressing S100 [1]: 71.4 ± 12.5^a %
- percentage of differentiated cells GFAP positive (during the 12-day post-treatment period (Table 3)): Less than 10%
- percentage of cells expressing TH (during the culture, day 2 to day 12 (text summary of Table 5)): below 10%
- ratio of cells expressing A2B5 (during the following culture, day 2 to day 12 (text summary of Table 4)): above 80%
